Measurements: patent publication US10226453B2, “3-(1H-indol-2-yl)-1H-pyrazolo[4,3-B]pyridines and therapeutic uses thereof” (Samumed, LLC, priority 2015, dated 2019)

Tests used:
SW480 colon cancer cells = assay: Cell viability assay (CellTiter-Blue), SW480 colon cancer cells; type: cell-based; details: Homo sapiens, 96 h, four days; for EC50: CellTiter-Blue; for inhibition at 10 µM: given where EC50 >10 μM, read-out: percent inhibition at 10 μM
Procedure, shortened: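 SW480 cells (~2×10^3/well) exposed four days at 37 °C to 8-point 1:3 dilutions, 10 μM down to 0.0045 μM. Viability from resazurin reduction (CellTiter-Blue, ~3 h, Ex 560/Em 590); EC50 by non-linear regression, or percent inhibition at 10 μM where EC50 exceeds 10 μM.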

[1] = system: primary human fibroblasts derived from IPF patients (LL29 cells) treated with TGF-β1; assay: Inhibition of the fibrotic process: αSMA staining in TGF-β1 treated primary human fibroblasts from IPF patients (LL29 cells); type: cell-based; details: Fibroblast, 96 h, TGF-β1 20 ng/mL, 4 days; for EC50: % αSMA positive cells; for inhibition at 10 µM: given where EC50 >10 μM, read-out: percent inhibition at 10 μM
Procedure, shortened: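 LL29 cells plated in F12 with 1% FBS, compounds added as 11-point 1:2 series (10 μM to 1.87 nM, 0.1% DMSO), then TGF-β1 20 ng/mL; 4 days at 37 °C. Fixed, αSMA immunostained, imaged; SYTOX-positive cells excluded. % αSMA-positive cells normalized to TGF-β1 wells; EC50 by non-linear regression, or % inhibition at 10 μM.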

| EC50 (SW480 colon cancer cells) | Compound | inhibition at 10 µM (SW480 colon cancer cells) | EC50 [1] | inhibition at 10 µM [1] |
| --- | --- | --- | --- | --- |
| > 10000 nM | FC1(F)CCN(Cc2cncc(-c3ccc4[nH]nc(-c5cc6c(-c7cccs7)cccc6[nH]5)c4n3)c2)C1 [Compound 362, 5-(5-((3,3-Difluoropyrrolidin-1-yl)methyl)pyridin-3-yl)-3-(4-(thiophen-2-yl)-1H-indol-2-yl)-1H-pyrazolo[4,3-b]pyridine] | 15.3% | 1290 nM |  |
| > 10000 nM | c1cc(-c2ccoc2)c2cc(-c3n[nH]c4ccc(-c5cncc(OC6CCCCC6)c5)nc34)[nH]c2c1 [Compound 715, 5-(5-(Cyclohexyloxy)pyridin-3-yl)-3-(4-(furan-3-yl)-1H-indol-2-yl)-1H-pyrazolo[4,3-b]pyridine] | 10.4% | 3940 nM |  |
| 1290 nM | c1cnc2cc(-c3n[nH]c4ccc(-c5cn[nH]c5)nc34)[nH]c2c1 [Compound 1021, 5-(1H-Pyrazol-4-yl)-3-(1H-pyrrolo[3,2-b]pyridin-2-yl)-1H-pyrazolo[4,3-b] pyridine] |  | 1370 nM |  |
| 1300 nM | CN(C)CCNc1cc(F)cc(-c2cccc3[nH]c(-c4n[nH]c5ccc(-c6cncnc6)nc45)cc23)c1 [Compound 475, N^1-(3-Fluoro-5-(2-(5-(pyrimidin-5-yl)-1H-pyrazolo[4,3-b]pyridin-3-yl)-1H-indol-4-yl)phenyl)-N^2,N^2-dimethylylethane-1,2-diamine] |  | 306 nM |  |
| 3940 nM | c1cc(N2CCCCC2)c2cc(-c3n[nH]c4ccc(-c5cncc(OC6CCNCC6)c5)nc34)[nH]c2c1 [Compound 636, 3-(4-(Piperidin-1-yl)-1H-indol-2-yl)-5-(5-(piperidin-4-yloxy)pyridin-3-yl)-1H-pyrazolo[4,3-b]pyridine] |  | 3900 nM |  |
| 5900 nM | CN(C)CCNc1cc(F)cc(-c2cccc3[nH]c(-c4n[nH]c5ccc(-c6ccccn6)nc45)cc23)c1 [Compound 476, N^1-(3-Fluoro-5-(2-(5-(pyridin-2-yl)-1H-pyrazolo[4,3-b]pyridin-3-yl)-1H-indol-4-yl)phenyl)-N^2,N^2-dimethylethane-1,2-diamine] |  | 2120 nM |  |
| 1180 nM | CN(C)CCNc1cc(F)cc(-c2cccc3[nH]c(-c4n[nH]c5ccc(-c6cncc(CN7CCCCC7)c6)nc45)cc23)c1 [Compound 463, N^1-(3-Fluoro-5-(2-(5-(5-(piperidin-1-ylmethyl)pyridin-3-yl)-1H-pyrazolo [4,3-b]pyridin-3-yl)-1H-indol-4-yl)phenyl)-N^2,N^2-dimethylethane-1,2-diamine] |  | 772 nM |  |
| > 10000 nM | O=C(CC1CCNCC1)Nc1cncc(-c2ccc3[nH]nc(-c4cc5c(-c6ccccn6)cccc5[nH]4)c3n2)c1 [Compound 621, 2-(Piperidin-4-yl)-N-(5-(3-(4-(pyridin-2-yl)-1H-indol-2-yl)-1H-pyrazolo[4,3-b]pyridin-5-yl)pyridin-3-yl)acetamide] | 51% | 2120 nM |  |
| > 10000 nM | Fc1cccc(-c2cccc3[nH]c(-c4n[nH]c5ccc(-c6cncc(OCc7ccccc7)c6)nc45)cc23)c1 [Compound 546, 5-(5-(Benzyloxy)pyridin-3-yl)-3-(4-(3-fluorophenyl)-1H-indol-2-yl)-1H-pyrazolo[4,3-b]pyridine] | 18.1% | 1440 nM |  |
| > 10000 nM | Oc1cncc(-c2ccc3[nH]nc(-c4cc5c(-c6cccs6)cccc5[nH]4)c3n2)c1 [Compound 737, 5-(3-(4-(Thiophen-2-yl)-1H-indol-2-yl)-1H-pyrazolo[4,3-b]pyridin-5-yl) pyridin-3-ol] | 0% | 2030 nM |  |
| 1880 nM | c1cc(-c2ccncc2)c2cc(-c3n[nH]c4ccc(-c5cncc(OCCN6CCCC6)c5)nc34)[nH]c2c1 [Compound 606, 3-(4-(Pyridin-4-yl)-1H-indol-2-yl)-5-(5-(2-(pyrrolidin-1-yl)ethoxy)pyridin-3-yl)-1H-pyrazolo[4,3-b]pyridine] |  | 1280 nM |  |
| 2940 nM | CN(C)Cc1cncc(-c2ccc3[nH]nc(-c4cc5ccccc5[nH]4)c3n2)c1 [Compound 265, 1-(5-(3-(1H-Indol-2-yl)-1H-pyrazolo[4,3-b]pyridin-5-yl)pyridin-3-yl)-N,N-dimethylmethanamine] |  | 521 nM |  |
| 965 nM | Nc1cncc(-c2ccc3[nH]nc(-c4cc5ncccc5[nH]4)c3n2)c1 [Compound 507, 5-(3-(1H-Pyrrolo[3,2-b]pyridin-2-yl)-1H-pyrazolo[4,3-b]pyridin-5-yl) pyridin-3-amine] |  | > 10000 nM | 24.5% |

Continued, compound first:

| Compound | EC50 (SW480 colon cancer cells) | inhibition at 10 µM (SW480 colon cancer cells) | EC50 [1] | inhibition at 10 µM [1] |
| --- | --- | --- | --- | --- |
| c1cc(-c2ccncc2)c2cc(-c3n[nH]c4ccc(-c5cncc(CN6CCCCC6)c5)nc34)[nH]c2c1 [Compound 127, 5-(5-(Piperidin-1-ylmethyl)pyridin-3-yl)-3-(4-(pyridin-4-yl)-1H-indol-2-yl)-1H-pyrazolo[4,3-b]pyridine] | 1920 nM |  | 8900 nM |  |
| Cc1ccncc1-c1ccc2[nH]nc(-c3cc4c(N5CCN(C)CC5)cccc4[nH]3)c2n1 [Compound 229, 3-(4-(4-Methylpiperazin-1-yl)-1H-indol-2-yl)-5-(4-methylpyridin-3-yl)-1H-pyrazolo[4,3-b]pyridine] | 4740 nM |  | 4920 nM |  |
| c1cncc(-c2ccc3[nH]nc(-c4cc5c(-c6cccnc6)cccc5[nH]4)c3n2)c1 [Compound 88, 5-(Pyridin-3-yl)-3-(4-(pyridin-3-yl)-1H-indol-2-yl)-1H-pyrazolo[4,3-b] pyridine] | 775 nM |  | 88 nM |  |
| FC1(F)CCN(Cc2cncc(-c3ccc4[nH]nc(-c5cc6c(-c7ccccn7)cccc6[nH]5)c4n3)c2)C1 [Compound 166, 5-(5-((3,3-Difluoropyrrolidin-1-yl)methyl)pyridin-3-yl)-3-(4-(pyridin-2-yl)-1H-indol-2-yl)-1H-pyrazolo[4,3-b]pyridine] | 1180 nM |  | 164 nM |  |
| c1cncc(-c2ccc3[nH]nc(-c4cc5ccccc5[nH]4)c3n2)c1 [Compound 256, 3-(1H-Indol-2-yl)-5-(pyridin-3-yl)-1H-pyrazolo[4,3-b]pyridine] | > 10000 nM | 37.6% | 1140 nM |  |
| Fc1ccc(-c2cccc3[nH]c(-c4n[nH]c5ccc(-c6cncnc6)nc45)cc23)cc1 [Compound 55, 3-(4-(4-Fluorophenyl)-1H-indol-2-yl)-5-(pyrimidin-5-yl)-1H-pyrazolo[4,3-b] pyridine] | > 10000 nM | 18.5% | 890 nM |  |
| Nc1cncc(-c2ccc3[nH]nc(-c4cc5c(-c6ccncc6)cccc5[nH]4)c3n2)c1 [Compound 115, 5-(3-(4-(Pyridin-4-yl)-1H-indol-2-yl)-1H-pyrazolo[4,3-b]pyridin-5-yl) pyridin-3-amine] | 218 nM |  | 41 nM |  |
| Fc1ccccc1-c1cccc2[nH]c(-c3n[nH]c4ccc(-c5cncc(CNCc6ccccc6)c5)nc34)cc12 [Compound 80, N-Benzyl-1-(5-(3-(4-(2-fluorophenyl)-1H-indol-2-yl)-1H-pyrazolo[4,3-b]pyridin-5-yl)pyridin-3-yl)methanamine] | > 10000 nM | 18.5% | 2490 nM |  |
| CC(C)(C)C(=O)Nc1cncc(-c2ccc3[nH]nc(-c4cc5c(-c6cccc(F)c6)cccc5[nH]4)c3n2)c1 [Compound 8, N-(5-(3-(4-(3-Fluorophenyl)-1H-indol-2-yl)-1H-pyrazolo[4,3-b]pyridin-5-yl)pyridin-3-yl)pivalamide] | > 10000 nM | 20.9% | 3670 nM |  |
| c1ccc(-c2cccc3[nH]c(-c4n[nH]c5ccc(-c6cncnc6)nc45)cc23)nc1 [Compound 167, 3-(4-(Pyridin-2-yl)-1H-indol-2-yl)-5-(pyrimidin-5-yl)-1H-pyrazolo[4,3-b] pyridine] | > 10000 nM | 13.8% | 201 nM |  |
| CN1CCN(c2cccc3[nH]c(-c4n[nH]c5ccc(-c6cncnc6)nc45)cc23)CC1 [Compound 251, 3-(4-(4-Methylpiperazin-1l-yl)-1H-indol-2-yl)-5-(pyrimidin-5-yl)-1H-pyrazolo[4,3-b]pyridine] | > 10000 nM | 15.3% | 7790 nM |  |
| c1ccc(-c2ccc3[nH]nc(-c4cc5c(-c6ccncc6)cccc5[nH]4)c3n2)nc1 [Compound 140, 5-(Pyridin-2-yl)-3-(4-(pyridin-4-yl)-1H-indol-2-yl)-1H-pyrazolo[4,3-b] pyridine] | > 10000 nM | 33.4% | 520 nM |  |
| Cc1ccncc1-c1ccc2[nH]nc(-c3cc4c(-c5ccncc5)cccc4[nH]3)c2n1 [Compound 117, 5-(4-Methylpyridin-3-yl)-3-(4-(pyridin-4-yl)-1H-indol-2-yl)-1H-pyrazolo [4,3-b]pyridine] | 696 nM |  | 197 nM |  |
| CN1CCN(c2cccc3[nH]c(-c4n[nH]c5ccc(-c6cncc(NC(=O)c7ccccc7)c6)nc45)cc23)CC1 [Compound 235, N-(5-(3-(4-(4-Methylpiperazin-1-yl)-1H-indol-2-yl)-1H-pyrazolo[4,3-b]pyridin-5-yl)pyridin-3-yl)benzamide] | 3910 nM |  | 1690 nM |  |
| c1ccc(-c2ccc3[nH]nc(-c4cc5c(N6CCCCC6)cccc5[nH]4)c3n2)nc1 [Compound 196, 3-(4-(Piperidin-1-yl)-1H-indol-2-yl)-5-(pyridin-2-yl)-1H-pyrazolo[4,3-b] pyridine] | > 10000 nM | 10.4% | > 10000 nM | 5.2% |
